Assay results from PMC7005646, “Overcoming resistance to anabolic SARM therapy in experimental cancer cachexia with an HDAC inhibitor” (EMBO Molecular Medicine, 2020).

Tests used:
pSTAT3 (Y705) = experiment: pSTAT3/tSTAT3 Western blot of gastrocnemius muscle; assay type: in vivo, mouse
Experimental: Western blots from all studies were performed on gastrocnemius muscle from representative animals lysed by Nonidet P‐40 isotonic lysis buffer [50 mM Tris–HCl, pH 7.5, 120 mM NaCl, 1% (v/v) Nonidet P‐40, 1 mM EDTA, 50 mM NaF, 40 mM glycerophosphate, and […] each of protease inhibitors (aprotinin, pepstatin, and leupeptin)]. Equivalent amounts of protein from each sample, as determined by the Bradford assay (Bio‐Rad), were resolved by SDS–PAGE and then transferred (semi‐dry) onto Immobilon nitrocellulose membranes (Millipore, Bellerica, MA). Membranes were washed twice with TBST [Tris‐buffered saline (TBS) containing 0.1% Tween‐20], blocked with 5% non‐fat milk in TBST for 1 h, and then washed an additional three times. Membranes were incubated with specific primary antibody in TBST (1:1,000) at 4°C overnight, washed three times (TBST), and then incubated with appropriate goat anti‐rabbit or anti‐mouse IgG–horseradish peroxidase‐conjugated secondary antibodies (1:5,000) at room temperature (1 h). Following additional washes (TBST), immunoblots were visualized as appropriate by ECL chemiluminescence (Amersham Biosciences, Little Chalfont, United Kingdom) or Duration HRP Chemiluminescence (Alkali Scientific, Florida, United States). Primary antibodies: phospho‐STAT3 (Tyr705) (D3A7) XP® rabbit mAb #9145, STAT3 (124H6) mouse mAb #9139 (Cell Signaling Technology, Danvers, MA); α‐tubulin (B‐7), sc‐5286 (Santa Cruz Biotechnologies, Santa Cruz, CA); androgen receptor (EP670Y), ab52615 (Abcam, Cambridge, MA) and GAPDH (6C5), sc‐32233 (Santa Cruz Biotechnologies, Santa Cruz, CA).

class I HDACs = experiment: In vitro HDAC inhibition assay, class I isoforms; assay type: biochemical, human; settings: 1 μM AR‐42; range over isoforms
Experimental: (§1) HDAC activity was measured by a commercial vendor using human recombinant HDAC enzymes and fluorogenic HDAC substrates (Eurofins Cerep SA, Celle L'Evescault, France). Substrate concentrations ranged from 20 to 400 μM, and incubation conditions ranged from 10 to 90 min (RT or 37°C), depending on isoform. Results are expressed as percent inhibition of control specific activity in the presence of 1 μM AR‐42.

IIb HDACs = experiment: In vitro HDAC inhibition assay, class IIb isoforms; assay type: biochemical, human; settings: 1 μM AR‐42; range over isoforms
Experimental: as §1

[1] = system: atrogin‐1, MuRF‐1, CEBPδ expression; experiment: qRT–PCR of atrophy‐related genes in gastrocnemius, Study 1; assay type: in vivo, mouse; settings: GTx‐024 15 mg/kg, AR‐42 10 mg/kg, or both
Experimental: To generate muscle tissue RNA, 15 mg of gastrocnemius muscle tissue was lysed in 10 volumes of lysis buffer per tissue mass in prefilled 2.0‐ml tubes with 3.0 mm zirconium beads (MIDSCI; St. Louis, MO). Tubes were loaded into BeadBlaster™ 24 (MIDSCI; St. Louis, MO) and […] for five cycles of 5 s with a 30‐s pause between cycles. Lysate was collected, and RNA was isolated using the mirVana™ miRNA Isolation Kit, with phenol (Thermo Fisher; Waltham, MA). Samples were treated with DNA‐free DNA Removal Kit to eliminate any DNA contamination (Invitrogen, Carlsbad, CA). Total RNA (0.5 μg) was reverse‐transcribed using high‐capacity cDNA reverse transcription kit (Applied Biosystems, Foster City, CA) for 10 min at 25°C, 120 min at 37°C, and 5 min at 85°C (T100™ Thermal Cycler, Bio‐Rad). Real‐time qPCR was performed on the QuantStudio 7 system (Applied Biosystems, Foster City, CA) using the powerup SYBR Green Master Mix (Applied Biosystems, Foster City, CA). Cycling was performed using the QuantStudio 7 real‐time PCR software—2 min at 50°C and 10 min at 95°C—followed by 40 cycles of 15 s at 95°C and 1 min at 60°C. […] As transformed expression data are not normally distributed, statistical differences between treatment groups were determined by one‐way ANOVA followed by Dunnett's test on raw delta C t values.

With `CC(C)[C@H](C(=O)Nc1ccc(C(=O)NO)cc1)c1ccccc1` [AR‐42] the pSTAT3 in gastrocnemius (pSTAT3 (Y705); female C‐26 tumor‐bearing mice, Study 3) was “reduced levels of pSTAT3 activation”, the pSTAT3 in gastrocnemius (pSTAT3 (Y705); male C‐26 tumor‐bearing mice, Study 1) was “reduced pSTAT3 but not equally in all animals” and the “inhibition of class I HDACs” value (class I HDACs) was 72–95%. The “inhibition of class IIb HDACs” value (IIb HDACs) was 86–100% and the “atrogin‐1, MuRF‐1, CEBPδ expression in gastrocnemius relative to tumor‐bearing controls” value [1] was “significantly reduced”.
